Experimental data: US8778966B2, “Quinolinone derivatives as PARP and tank inhibitors” (Janssen Pharmaceutica, NV, priority 2007, dated 2014)

Tests used:
[1] = target: T1, Human PARP-1 enzyme (Homo sapiens, UniProt P09874); test: In vitro Scintillation Proximity Assay (SPA) for PARP-1 inhibitory activity; format: biochemical; settings: read-out: in vitro SPA assay PARP-1 pIC50 (converted)
T1 construct: purchased Trevigen
Procedure, shortened: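 SPA assay: nicked-DNA-activated PARP-1 (0.1–0.2 μg/ml) ADP-ribosylates biotinylated histones (2 μg/ml) using [3H]-NAD+, 20 min at RT in Tris pH 8/DTT/MgCl2, stopped with 2 mM NAD+. Blank-subtracted cpm expressed as % control; IC50 by linear interpolation, reported as pIC50 (10−5 to 3×10−9 M tested).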

[2] = test system: HCT116 cells; test: Mitotic arrest assay on HCT116 cells (phospho-histone H3 Ser10); format: cell-based, human; settings: lowest active dose; for Mitotic arrest HCT116 LAD: HCT116 cells, the values are: pLAD (−log M lowest active dose); for minimal effective concentration: Homo sapiens, HCT-116, HCT116 cells, read-out: Mitotic arrest HCT116 LAD (converted)
Procedure, shortened: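 Read-out is imaging of phospho-histone H3 Ser10 (Alexa Fluor 488) with Hoechst nuclear counting, after 6 h compound exposure at 37 °C, DMSO ≤0.1%. LAD is the lowest dose at which the blank-corrected value over SD exceeds 5; triplicates, low-count wells excluded.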

T1 sequence (P09874 whole entry): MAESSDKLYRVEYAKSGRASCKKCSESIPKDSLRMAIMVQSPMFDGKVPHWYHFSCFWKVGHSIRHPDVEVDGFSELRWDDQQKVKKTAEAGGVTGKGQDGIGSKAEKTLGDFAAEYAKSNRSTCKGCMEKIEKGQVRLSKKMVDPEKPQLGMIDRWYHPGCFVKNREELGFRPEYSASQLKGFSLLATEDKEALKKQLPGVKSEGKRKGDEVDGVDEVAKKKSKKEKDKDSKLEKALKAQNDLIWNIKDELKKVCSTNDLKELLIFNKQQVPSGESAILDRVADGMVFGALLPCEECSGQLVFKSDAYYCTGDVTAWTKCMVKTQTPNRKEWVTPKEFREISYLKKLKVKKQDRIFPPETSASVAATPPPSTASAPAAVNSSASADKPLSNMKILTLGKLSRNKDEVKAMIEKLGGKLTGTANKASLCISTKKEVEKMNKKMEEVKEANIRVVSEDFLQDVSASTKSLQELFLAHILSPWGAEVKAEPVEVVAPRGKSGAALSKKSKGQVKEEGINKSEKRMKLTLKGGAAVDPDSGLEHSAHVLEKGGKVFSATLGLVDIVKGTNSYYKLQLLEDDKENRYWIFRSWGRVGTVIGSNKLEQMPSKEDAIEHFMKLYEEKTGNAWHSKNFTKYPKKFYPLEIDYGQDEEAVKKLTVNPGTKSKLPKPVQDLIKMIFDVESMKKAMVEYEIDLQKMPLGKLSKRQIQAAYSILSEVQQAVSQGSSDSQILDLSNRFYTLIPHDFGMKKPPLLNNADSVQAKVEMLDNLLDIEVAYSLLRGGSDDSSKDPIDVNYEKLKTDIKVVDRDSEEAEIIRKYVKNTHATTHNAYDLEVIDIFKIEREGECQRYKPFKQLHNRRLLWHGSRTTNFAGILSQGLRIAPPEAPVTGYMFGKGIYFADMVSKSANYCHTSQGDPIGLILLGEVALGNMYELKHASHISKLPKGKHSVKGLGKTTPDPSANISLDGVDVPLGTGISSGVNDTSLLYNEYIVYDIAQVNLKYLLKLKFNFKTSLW

Row | Structure (SMILES) | IC50 [1] [nM] | Mitotic arrest HCT116 LAD [2] | minimal effective concentration [2] [µM]
1 | CCc1cc2ccc(C(C)(C#N)Cc3cccc(C#N)n3)cc2[nH]c1=O (single isomer, unassigned) [Compound 206] | 50.1 | 5 | 
2 | CCc1cc2ccc(C(C)(C#N)Cc3cccc(C#N)n3)cc2[nH]c1=O (single isomer, unassigned) [Compound 207] | 39.8 | 7 | 
3 | C#Cc1cccc(C[C@](C)(C#N)c2ccc3cc(CC)c(=O)[nH]c3c2)c1 [Compound 2] | 126 |  | 10
4 | C#Cc1cccc(C[C@@](C)(C#N)c2ccc3cc(CC)c(=O)[nH]c3c2)c1 [Compound 3] | 79.4 |  | 0.01
5 | CCc1cc2ccc(C(C#N)(CC)Cc3ccccc3)cc2[nH]c1=O (centres unmarked) [Compound 32] | 501 |  | 1
6 | COc1ccccc1-c1nc(CC(C)(C#N)c2ccc3cc(C)c(=O)[nH]c3c2)no1 (centres unmarked) [Compound 33] | 1260 |  | 1
7 | Cc1cc2ccc(C(C)(C#N)Cc3cccc(C#N)c3)cc2[nH]c1=O (centres unmarked) [Compound 34] | 794 |  | 0.1
8 | Cc1cc2ccc([C@@](C)(C#N)Cc3cccc(C#N)c3)cc2[nH]c1=O [Compound 35] | 501 |  | 3.16
9 | Cc1cc2ccc([C@](C)(C#N)Cc3cccc(C#N)c3)cc2[nH]c1=O [Compound 36] | 1580 |  | 0.1
10 | Cc1cc2ccc(C(C)(C#N)Cc3cccc(Cl)c3)cc2[nH]c1=O (centres unmarked) [Compound 37] | 2000 |  | 0.1
11 | CC(C)c1cc2ccc(C(C)(C#N)Cc3ccccc3)cc2[nH]c1=O (centres unmarked) [Compound 38] | > 10000 |  | 3.16
12 | CC(=O)c1cc2ccc(C(C)(C#N)Cc3ccccc3)cc2[nH]c1=O (centres unmarked) [Compound 39] | 7940 |  | 3.16
13 | CCc1cc2ccc(C(C)(C#N)Cc3cccc(OC[C@@H](O)CO)c3)cc2[nH]c1=O (some centres unmarked) [Compound 56] | 100 |  | 3
14 | CCc1cc2ccc(C(C)(C#N)Cc3cccc(CCC#N)c3)cc2[nH]c1=O (centres unmarked) [Compound 169] | 79.4 | 6 | 
15 | CCc1cc2ccc(C(C)(C#N)Cc3cccc(CNS(C)(=O)=O)c3)cc2[nH]c1=O (centres unmarked) [Compound 170] | 79.4 |  | 3
16 | C=Cc1cccc(CC(C)(C#N)c2ccc3cc(CC)c(=O)[nH]c3c2)c1 (centres unmarked) [Compound 172] | 100 |  | 0.3

Row | Structure (SMILES) | IC50 [1] [nM] | Mitotic arrest HCT116 LAD [2] | minimal effective concentration [2] [µM]
17 | CCc1cc2cc(F)c(C(C)(C#N)Cc3cccc(C#N)c3)cc2[nH]c1=O (centres unmarked) [Compound 175] | 200 |  | 0.3
18 | CCc1c(C)c2ccc(C(C)(C#N)Cc3cccc(C#N)c3)cc2[nH]c1=O (centres unmarked) [Compound 181] | 100 |  | 0.3
19 | CCc1cc2cc(OCCOC)c(C(C)(C#N)Cc3cccc(C#N)c3)cc2[nH]c1=O (centres unmarked) [Compound 182] | 158 |  | 10
20 | CCc1cc2ccc(C(C)(C#N)Cc3cccc(C#CCO)c3)cc2[nH]c1=O (centres unmarked) [Compound 183] | 63.1 |  | 0.1
21 | CCc1cc2ccc(C(F)(C#N)Cc3ccccc3)cc2[nH]c1=O (centres unmarked) [Compound 187] | 63.1 |  | 3
22 | CCc1cc2ccc(C(C)(C#N)CN(C)Cc3ccccc3)cc2[nH]c1=O (centres unmarked) [Compound 189] | 398 |  | 1
23 | CCc1cc2ccc(C(C)(C#N)C(C)c3ccccc3)cc2[nH]c1=O (centres unmarked) [Compound 198] | 126 |  | 0.3
24 | CCc1cc2ccc([C@](C)(C#N)[C@@H](C)c3ccccc3)cc2[nH]c1=O [Compound 199] | 79.4 |  | 3
25 | CCc1cc2ccc([C@](C)(C#N)[C@H](C)c3ccccc3)cc2[nH]c1=O [Compound 200] | 251 |  | 0.3
26 | CCc1cc2ccc(C(C)(C#N)Cc3cccc(C#C[Si](C)(C)C)n3)cc2[nH]c1=O (centres unmarked) [Compound 210] | 398 |  | 1
27 | C#Cc1cccc(CC(C)(C#N)c2ccc3cc(CC)c(=O)[nH]c3c2)n1 (centres unmarked) [Compound 211] | 126 |  | 1
28 | CCc1cc2ccc(C(C)(C#N)Cc3cccc(N(C)C)n3)cc2[nH]c1=O (centres unmarked) [Compound 213] | 63.1 |  | 0.3
29 | CCc1cc2ccc(C(C)(C#N)Cc3cccc(I)n3)cc2[nH]c1=O (centres unmarked) [Compound 214] | 50.1 |  | 0.3
30 | CCOC(=O)c1cccc(CC(C)(C#N)c2ccc3cc(CC)c(=O)[nH]c3c2)n1 (centres unmarked) [Compound 215] | 398 |  | 1
31 | CCc1cc2ccc(C(C)(C#N)Cc3cccc(COC)n3)cc2[nH]c1=O (centres unmarked) [Compound 216] | 398 |  | 1

Further lines, with some results ahead:

Row | IC50 [1] [nM] | Structure (SMILES) | Mitotic arrest HCT116 LAD [2] | minimal effective concentration [2] [µM]
32 | 50.1 | CCc1cc2ccc([C@@](C)(C#N)Cc3cccc(N(C)C)c3)cc2[nH]c1=O (single isomer, unassigned) [Compound 258] |  | 0.1
33 | 79.4 | CCc1cc2ccc([C@](C)(C#N)Cc3cccc(N(C)C)c3)cc2[nH]c1=O (single isomer, unassigned) [Compound 259] |  | 10
34 | 631 | CCC[C@@](C#N)(Cc1ccccc1)c1ccc2cc(CC)c(=O)[nH]c2c1 (single isomer, unassigned) [Compound 263] |  | 1
35 | 398 | CCC[C@](C#N)(Cc1ccccc1)c1ccc2cc(CC)c(=O)[nH]c2c1 (single isomer, unassigned) [Compound 264] |  | 10
36 | 50.1 | CCc1cc2ccc([C@@](C)(C#N)Cc3cccc(C#N)c3)cc2[nH]c1=O (single isomer, unassigned) [Compound 268] |  | 10
37 | 31.6 | CCc1cc2ccc([C@](C)(C#N)Cc3cccc(C#N)c3)cc2[nH]c1=O (single isomer, unassigned) [Compound 269] |  | 0.1
38 | 398 | CCc1cc2ccc([C@](C)(C#N)C[C@@H]3Cc4cc(C)ccc4O3)cc2[nH]c1=O (single isomer, unassigned) [Compound 400] |  | 10
39 | 100 | CCc1cc2ccc(C(C)(C#N)Cc3cccc(OCCOC)n3)cc2[nH]c1=O (centres unmarked) [Compound 219] |  | 1
40 | 79.4 | CCc1cc2ccc(C(C)(C#N)Cc3cccc(CN)n3)cc2[nH]c1=O (centres unmarked) [Compound 221] |  | 3
41 | 79.4 | CCc1cc2ccc(C(C)(C#N)Cc3cccc(OCCO)c3)cc2[nH]c1=O (centres unmarked) [Compound 262] |  | 0.3
42 | 501 | CCc1cc2ccc(C(C)(C#N)CCOc3cccc(C(F)(F)F)c3)cc2[nH]c1=O (centres unmarked) [Compound 274] |  | 1
43 | 50.1 | CCc1cc2ccc(C(C)(C#N)Cc3cccc(CN)c3)cc2[nH]c1=O (centres unmarked) [Compound 290] |  | 0.3
44 | 63.1 | CCc1cc2ccc(C(C)(C#N)Cc3cccc(/C=C/S(C)(=O)=O)c3)cc2[nH]c1=O (centres unmarked) [Compound 292] |  | 0.1
45 | 398 | CCc1c(Cl)c2ccc(C(C)(C#N)Cc3cccc(C#N)c3)cc2[nH]c1=O (centres unmarked) [Compound 293] |  | 0.3
46 | 251 | CCc1cc2cc(OC)c(C(C)(C#N)Cc3ccccc3)cc2[nH]c1=O (centres unmarked) [Compound 294] |  | 3
47 | 79.4 | CCc1cc2ccc(C(C)(C#N)Cc3cccc(C#CCOC)c3)cc2[nH]c1=O (centres unmarked) [Compound 297] |  | 0.3
48 | 501 | CCc1cc2ccc(C(C)(C#N)Cc3cccc(C#CCN(C)C)c3)cc2[nH]c1=O (centres unmarked) [Compound 298] |  | 1
49 | 100 | CCc1cc2ccc(C(C)(C#N)CNCc3cccc(C#N)c3)cc2[nH]c1=O (centres unmarked) [Compound 301] |  | 1
50 | 79.4 | CCc1cc2ccc(C(C)(C#N)Cc3cnc(Cl)nc3Cl)cc2[nH]c1=O (centres unmarked) [Compound 306] |  | 10
51 | 631 | COc1cc(OC)nc(CC(C)(C#N)c2ccc3cc(C)c(=O)[nH]c3c2)n1 (centres unmarked) [Compound 308] |  | 0.1
52 | 158 | CCOc1cc(OCC)nc(CC(C)(C#N)c2ccc3cc(CC)c(=O)[nH]c3c2)n1 (centres unmarked) [Compound 309] |  | 1
53 | 100 | CCc1cc2ccc(C(C)(C#N)Cc3cccc(Cl)n3)cc2[nH]c1=O (centres unmarked) [Compound 310] |  | 0.3
54 | 126 | CCc1cc2ccc(C(C)(C#N)Cc3ncc(C)c(OC)c3C)cc2[nH]c1=O (centres unmarked) [Compound 311] |  | 1
55 | 100 | CCc1cc2ccc(C(C)(C#N)Cc3ccc(C)nc3)cc2[nH]c1=O (centres unmarked) [Compound 327] |  | 3
56 | 79.4 | CCc1cc2ccc(C(C)(C#N)Cc3cccc(C#N)n3)cc2[nH]c1=O (centres unmarked) [Compound 329] |  | 0.3
57 | 251 | CCCn1ccnc1CC(C)(C#N)c1ccc2cc(CC)c(=O)[nH]c2c1 (centres unmarked) [Compound 335] |  | 3
58 | 79.4 | CCc1cc2ccc(C(C)(C#N)Cc3ccc4ccccc4n3)cc2[nH]c1=O (centres unmarked) [Compound 336] |  | 1
